Experimental data reported in US10829520B2, “Beta-hairpin peptidomimetics” (POLYPHOR AG, priority 2015, dated 2020).
Where a SMILES comes first, the peptide text is derived from it. Bridges are numbered along the chain shown (N, C = ends). Roman numbers before positions name the chains, in order. [ ]: non-standard residue; d: D form. NMeDab = CN[C@@H](CCN)C(=O)O; Tle = CC(C)(C)[C@H](N)C(=O)O; dDab = NCC[C@@H](N)C(=O)O; Nle = CCCC[C@H](N)C(=O)O; Orn = NCCC[C@H](N)C(=O)O; Dab = NCC[C@H](N)C(=O)O

Experiments:
Format in all cases: cell-based
[1] = test system: human red blood cells (hRBC); assay: Hemolysis of human red blood cells; conditions: red cells of human, 1 h, 100
Procedure, shortened: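 Peptides at 100 μg/mL were incubated with PBS-washed fresh human erythrocytes (20% v/v, ~0.9×10^9 cells/mL final) for 1 h at 37° C. with shaking. Supernatant OD540 was read after 8-fold dilution; percent hemolysis was expressed relative to the 2.5% Triton X-100 full-lysis control, with PBS/0.001% acetic acid as 0%.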

[2] = test system: Acinetobacter baumannii DSM 30008; conditions: DSM 30008
Procedure, shortened: (§1)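 Broth microdilution per CLSI, cation-adjusted MH-II medium, 0.002% (v/v) polysorbate 80 final. Approx. 10^6 CFU/mL inoculum, incubated 35° C for 18-20 h; MIC read as absence of visible growth.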

[3] = test system: Pseudomonas aeruginosa ATCC 27853; conditions: ATCC 27853
Procedure, shortened: as §1

[4] = test system: Escherichia coli ATCC 25922; conditions: ATCC 25922
Procedure, shortened: as §1

[5] = test system: Acinetobacter baumannii 872842; conditions: 872842
[6] = test system: Klebsiella pneumoniae SSI #3010; conditions: SSI #3010
Procedure, shortened: as §1

[7] = test system: Klebsiella pneumoniae 968733; conditions: 968733
Escherichia coli 926415 = conditions: 926415

Acinetobacter baumannii DSM 30008 MIC [2] | Pseudomonas aeruginosa ATCC 27853 MIC [3] | Escherichia coli ATCC 25922 MIC [4] | Acinetobacter baumannii 872842 MIC [5] | Klebsiella pneumoniae SSI #3010 MIC [6] | Klebsiella pneumoniae 968733 MIC [7] | Escherichia coli 926415 MIC (Escherichia coli 926415) | Compound | Hemolysis at 100 μg/mL [1]
1 µg/mL | 1 µg/mL | 0.25 µg/mL | 4 µg/mL | 1 µg/mL | 2 µg/mL | 2 µg/mL | CCCC[C@@H]1NC(=O)[C@@H]2CCCN2C(=O)[C@H]2CCCN2C(=O)[C@H](CO)NC(=O)[C@H](C)NC(=O)[C@H](C(C)(C)C)NC(=O)[C@H](CCN)NC(=O)[C@H](Cc2c[nH]c3ccccc23)NC(=O)[C@H](CCN)NC(=O)[C@@H](CCN)NC(=O)[C@H](CC(=O)N[C@H](CCN)C(=O)N[C@H]2CCNC(=O)[C@H]([C@@H](C)O)NC(=O)[C@H](CCN)NC(=O)[C@H](CCN)NC(=O)[C@H](CC(C)C)NC(=O)[C@@H](Cc3ccccc3)NC(=O)[C@H](CCN)NC2=O)NC(=O)[C@H](CCN)NC(=O)[C@H](Cc2ccc(O)cc2)NC(=O)[C@H](CO)NC1=O [Ex. 66] (I: cyclo([Nle]SY[Dab]D[dDab][Dab]W[Dab][Tle]AS[dP]P) / II: [dDab][Dab][Dab][dF]L[Dab][Dab]T; amide I:5-II:N; lactam II:2-II:C) | 1%
1 µg/mL | 1 µg/mL | 1 µg/mL | 4 µg/mL | 2 µg/mL | 2 µg/mL | 2 µg/mL | CCCC[C@@H]1NC(=O)[C@@H]2CCCN2C(=O)[C@H]2CCCN2C(=O)[C@H](CO)NC(=O)[C@H](C)NC(=O)[C@H](C(C)(C)C)NC(=O)[C@H](CCN)NC(=O)[C@H](Cc2c[nH]c3ccccc23)NC(=O)[C@H](CCN)NC(=O)[C@@H](CCN)NC(=O)[C@H](CC(=O)N[C@@H](CCN)C(=O)N[C@H]2CCNC(=O)[C@H]([C@@H](C)O)NC(=O)[C@H](CCN)NC(=O)[C@H](CCN)NC(=O)[C@H](CC(C)C)NC(=O)[C@@H](Cc3ccccc3)NC(=O)[C@H](CCN)NC2=O)NC(=O)[C@H](CCN)NC(=O)[C@H](Cc2ccc(O)cc2)NC(=O)[C@H](CO)NC1=O [Ex. 67] (I: cyclo([Nle]SY[Dab]D[dDab][Dab]W[Dab][Tle]AS[dP]P) / II: [Dab][Dab][Dab][dF]L[Dab][Dab]T; amide I:5-II:N; lactam II:2-II:C) | <1%
1 µg/mL | 1 µg/mL | 0.5 µg/mL | 4 µg/mL | 1 µg/mL | 2 µg/mL | 2 µg/mL | CCCC[C@@H]1NC(=O)[C@@H]2CCCN2C(=O)[C@H]2CCCN2C(=O)[C@H](CO)NC(=O)[C@H](C)NC(=O)[C@H](C(C)(C)C)NC(=O)[C@H](CCN)NC(=O)[C@H](Cc2c[nH]c3ccccc23)NC(=O)[C@H](CCN)NC(=O)[C@@H](CCN)NC(=O)[C@H](CC(=O)N(C)[C@@H](CCN)C(=O)N[C@H]2CCNC(=O)[C@H]([C@@H](C)O)NC(=O)[C@H](CCN)NC(=O)[C@H](CCN)NC(=O)[C@H](CC(C)C)NC(=O)[C@@H](Cc3ccccc3)NC(=O)[C@H](CCN)NC2=O)NC(=O)[C@H](CCN)NC(=O)[C@H](Cc2ccc(O)cc2)NC(=O)[C@H](CO)NC1=O [Ex. 69] (I: cyclo([Nle]SY[Dab]D[dDab][Dab]W[Dab][Tle]AS[dP]P) / II: [NMeDab][Dab][Dab][dF]L[Dab][Dab]T; amide I:5-II:N; lactam II:2-II:C) | 2%
1 µg/mL | 0.5 µg/mL | 1 µg/mL | 2 µg/mL | 2 µg/mL | 8 µg/mL | 1 µg/mL | CCCC[C@@H]1NC(=O)[C@@H]2CCCN2C(=O)[C@H]2CCCN2C(=O)[C@H](CO)NC(=O)[C@H](C)NC(=O)[C@H](C(C)(C)C)NC(=O)[C@H](CCN)NC(=O)[C@H](Cc2c[nH]c3ccccc23)NC(=O)[C@H](CCC(=O)N[C@@H](CCN)C(=O)N[C@H]2CCNC(=O)[C@H]([C@@H](C)O)NC(=O)[C@H](CCN)NC(=O)[C@H](CCN)NC(=O)[C@H](CC(C)C)NC(=O)[C@@H](CC(C)C)NC(=O)[C@H](CCN)NC2=O)NC(=O)[C@@H](CCN)NC(=O)[C@H](CCCN)NC(=O)[C@H](CCN)NC(=O)[C@H](Cc2ccc(O)cc2)NC(=O)[C@H](CO)NC1=O [Ex. 70] (I: cyclo([Nle]SY[Dab][Orn][dDab]EW[Dab][Tle]AS[dP]P) / II: [Dab][Dab][Dab][dL]L[Dab][Dab]T; amide I:7-II:N; lactam II:2-II:C) | <1%
0.5 µg/mL | 0.5 µg/mL | 0.125 µg/mL | 1 µg/mL | 2 µg/mL | 2 µg/mL | 0.25 µg/mL | CCCC[C@@H]1NC(=O)[C@@H]2CCCN2C(=O)[C@H]2CCCN2C(=O)[C@H](CO)NC(=O)[C@H](C)NC(=O)[C@H](C(C)(C)C)NC(=O)[C@H](CCN)NC(=O)[C@H](Cc2c[nH]c3ccccc23)NC(=O)[C@H](CCN)NC(=O)[C@@H](CCN)NC(=O)[C@H](CC(=O)N[C@@H](CCN)C(=O)N[C@H]2CCNC(=O)[C@H]([C@@H](C)O)NC(=O)[C@H](CCN)NC(=O)[C@H](CCN)NC(=O)[C@H](CC(C)C)NC(=O)[C@@H](CC(C)C)NC(=O)[C@H](CCN)NC2=O)NC(=O)[C@H](CCN)NC(=O)[C@H](Cc2ccc(O)cc2)NC(=O)[C@H](CO)NC1=O [Ex. 71] (I: cyclo([Nle]SY[Dab]D[dDab][Dab]W[Dab][Tle]AS[dP]P) / II: [Dab][Dab][Dab][dL]L[Dab][Dab]T; amide I:5-II:N; lactam II:2-II:C) | <1%
1 µg/mL | 1 µg/mL | 1 µg/mL | 1 µg/mL | 1 µg/mL | 1 µg/mL | 0.5 µg/mL | CCCC[C@@H]1NC(=O)[C@@H]2CCCN2C(=O)[C@H]2CCCN2C(=O)[C@H](CO)NC(=O)[C@H](C)NC(=O)[C@H](C(C)(C)C)NC(=O)[C@H](CCN)NC(=O)[C@H](Cc2c[nH]c3ccccc23)NC(=O)[C@H](CCN)NC(=O)[C@@H](CCN)NC(=O)[C@H](CCC(=O)N[C@H](CCN)C(=O)N[C@H]2CCNC(=O)[C@H]([C@@H](C)O)NC(=O)[C@H](CCN)NC(=O)[C@H](CCN)NC(=O)[C@H](CC(C)C)NC(=O)[C@@H](CC(C)C)NC(=O)[C@H](CCN)NC2=O)NC(=O)[C@H](CCN)NC(=O)[C@H](Cc2ccc(O)cc2)NC(=O)[C@H](CO)NC1=O [Ex. 72] (I: cyclo(W[Dab][Tle]AS[dP]P[Nle]SY[Dab]E[dDab][Dab]) / II: [dDab][Dab][Dab][dL]L[Dab][Dab]T; amide I:12-II:N; lactam II:2-II:C) | <1%
